Test results: US20210196654A1, “METHOD OF TREATING CONDITIONS” (Clexio Biosciences Ltd., priority 2019, published 2021)
Like-named read-outs stand apart in the source and are kept apart here.

How the values were obtained:
[1] = system: human peripheral blood lymphocytes (HPBL); details: for structural or numerical (polyploid or endoreduplicated cells) aberrations: non-activated 4 and 20-hour exposure, 60, 120, 238 μg/mL
Method: The clastogenic potential of esketamine was evaluated in the in vitro mammalian chromosome aberration test using human peripheral blood lymphocytes (HPBL) in both the absence and presence of an induced metabolic activation system (the 9000 g supernatant [S9] microsomal fraction of liver homogenate from rats exposed to Aroclor-1254).
The study was conducted in 2 phases, with a preliminary toxicity test used to determine the appropriate concentrations for the definitive chromosomal aberration assay. Water was used as a negative (vehicle) control. Toxicity (defined as >45% reduction in MI relative to the vehicle control) was evaluated at 9 concentrations, ranging from 0.0238 to 238 μg/ml, after exposure of HPBL to esketamine for 20 hours in the absence of S9 activation, or for 4 hours, either in the presence or absence of S9 activation, followed by a 16-hour recovery period.
The definitive chromosome aberration assay evaluated HPBL cells after exposure to esketamine for 20 hours in the absence of S9 activation, or for 4 hours, either in the presence of absence of S9 activation, followed by a 16-hour recovery. Positive controls for chromosomal aberrations in non-activated and S9-activated evaluations, respectively, consisted of mitomycin C (MMC, 0.6 and 0.3 μg/mL for the 4- and 20-hour exposures, respectively) and cyclophosphamide (CP, 2.5, 5, and 7.5 μg/mL). […] Initially, the doses selected for evaluation of chromosomal aberrations were 60, 120, and 238 μg/mL for the non-activated 4- and 20-hour treatment conditions; and 30, 60, and 200 μg/mL for the S9-activated 4-hour treatment condition.

[2] = system: healthy male and female subjects; experiment: Single dose crossover study in healthy volunteers, adverse events; type: in vivo, human
Excerpt: A total of 128 TEAEs (treatment-emergent adverse event) were reported by 15 of 16 (94%) subjects of which 79 TEAEs reported by 14 of 16 (88%) subjects were to be related to the study drug. Overall, a total of 14 of 128 TEAEs reported by 4 (25%) subjects were of moderate severity and 114 of 128 TEAEs reported by 15 (94%) subjects were of mild severity. […] The most frequently occurring adverse events (reported more than twice) were headache, dizziness, hypokinesia, feeling abnormal, fatigue, euphoric mood inappropriate affect, nausea and hyperhidrosis. Table 4 presents the frequency of the most frequently reported related TEAEs as a percentage of the subjects that experienced an adverse effect per treatment.

[3] = cited from earlier work

SMILES: CN[C@]1(c2ccccc2Cl)CCCCC1=O [esketamine, (2S)-2-(2-Chlorophenyl)-2-(methylamino) cyclohexanone]
- Cochran-Armitage test, structural aberrations [1]: positive for a dose response
- Toxicity (>45% reduction in MI relative to vehicle control), preliminary toxicity test [1]: not observed at any dose
- induction of structural chromosomal aberrations [1]: positive
- doses at which cytotoxicity was observed ([1]; human): > 200 µg/mL
- cytotoxicity (>45% reduction in mitotic index), chromosomal aberration assay ([1]; non-activated 4- and 20-hour treatment): not observed at any esketamine dose
- structural or numerical (polyploid or endoreduplicated cells) aberrations [1]: no significant or dose-dependent increases
- structural or numerical (polyploid or endoreduplicated cells) aberrations ([1]; listed as Esketamine): negative
- Dizziness, related TEAE, percentage of subjects ([2]; 0.3 mg/kg iv): 6%
- Euphoric mood, related TEAE, percentage of subjects ([2]; 0.3 mg/kg iv): 19%
- Fatigue, related TEAE, percentage of subjects ([2]; 0.3 mg/kg iv): 6%
- Feeling abnormal, related TEAE, percentage of subjects ([2]; 0.3 mg/kg iv): 13%
- Headache, related TEAE, percentage of subjects ([2]; 0.3 mg/kg iv): 19%
- Hypokinesia, related TEAE, percentage of subjects ([2]; 0.3 mg/kg iv): 6%
- Inappropriate affect, related TEAE, percentage of subjects ([2]; 0.3 mg/kg iv): 6%
- Nausea, related TEAE, percentage of subjects ([2]; 0.3 mg/kg iv): 6%
- Feeling abnormal, related TEAE, percentage of subjects ([2]; 20 mg oral solution): 19%
- Headache, related TEAE, percentage of subjects ([2]; 20 mg oral solution): 19%
- Inappropriate affect, related TEAE, percentage of subjects ([2]; 20 mg oral solution): 6%
- Dizziness, related TEAE, percentage of subjects ([2]; 20 mg oral tablet): 13%
- Fatigue, related TEAE, percentage of subjects ([2]; 20 mg oral tablet): 7%
- Feeling abnormal, related TEAE, percentage of subjects ([2]; 20 mg oral tablet): 7%
- Hyperhidrosis, related TEAE, percentage of subjects ([2]; 20 mg oral tablet): 7%
- Dizziness, related TEAE, percentage of subjects ([2]; 100 mg oral tablet): 13%
- Euphoric mood, related TEAE, percentage of subjects ([2]; 100 mg oral tablet): 13%
- Feeling abnormal, related TEAE, percentage of subjects ([2]; 100 mg oral tablet): 20%
- Headache, related TEAE, percentage of subjects ([2]; 100 mg oral tablet): 13%
- Hyperhidrosis, related TEAE, percentage of subjects ([2]; 100 mg oral tablet): 7%
- Hypokinesia, related TEAE, percentage of subjects ([2]; 100 mg oral tablet): 13%
- Inappropriate affect, related TEAE, percentage of subjects ([2]; 100 mg oral tablet): 7%
- Nausea, related TEAE, percentage of subjects ([2]; 100 mg oral tablet): 20%
- subjects reporting TEAEs of moderate severity ([2]; 4 subjects): 25%
- subjects reporting TEAEs related to the study drug ([2]; 14 of 16 subjects): 88%
- subjects reporting TEAEs ([2]; 15 of 16 subjects): 94%
- subjects reporting TEAEs of mild severity ([2]; 15 subjects): 94%
- tolerability ([2]; 15 subjects who completed the study): generally well tolerated
- TEAEs related to the study drug ([2]; all treatments): 79
- severe TEAEs or SAEs ([2]; all treatments): No severe TEAEs or SAEs were reported
- total TEAEs reported ([2]; all treatments, 16 subjects): 128
- TEAEs of mild severity ([2]; of 128 TEAEs): 114
- TEAEs of moderate severity ([2]; of 128 TEAEs): 14
- oral bioavailability ([3]; Fanta et al (2015)): 8%
- oral bioavailability ([3]; Peltoniemi et al (2012)): 11%
